Measured values taken from PMC10301922, “Anti-Oxidant, Anti-Mutagenic Activity and Safety Evaluation of Antrocin” (Toxics, 2023).
Converted amounts (≈) assume the structure as drawn.

Key:
CHO-K1 cells = experiment: MTT assay for cytotoxicity; type: cell-based, Chinese hamster; conditions: Cricetulus griseus, MTT, 24 h, read-out: half maximal inhibitory concentration (IC50)
[1] = MTT assay for cytotoxicity; type: cell-based, Chinese hamster; conditions: Chinese hamster, CHO-K1 cells, read-out: cell viabilities
Sprague Dawley rats [2] = experiment: 28-day oral toxicity test: absolute organ weight
[3] = tested on: lung cancer tumor xenografts; parameters: method as in PMID 23880305; conditions: 5 mg/kg/day intraperitoneal; cited from earlier work
[4] = tested on: Salmonella typhimurium TA102; experiment: Ames test (plate incorporation), TA102
[5] = tested on: Salmonella typhimurium TA1535; experiment: Ames test (plate incorporation), TA1535
[6] = tested on: Salmonella typhimurium TA98; experiment: Ames test (plate incorporation), TA98
Sprague Dawley rats [7] = experiment: 28-day oral toxicity test: hematology; conditions: female rats, 7.5 mg/kg oral 28 d
[8] = female rats, 7.5 mg/kg oral 28 d
[9] = female rats, 37.5 mg/kg oral 28 d
[10] = male rats, 37.5 mg/kg oral 28 d

C=C1CC[C@H]2C(C)(C)CCC[C@@]23C(=O)OC[C@@H]13 [Antrocin, (-)-Antrocin]
IC50 (CHO-K1 cells): ~123 µg/mL (≈ 524 µM) | viability at 24 h, 31.25 μg/mL ([1]; 31.25 μg/mL): 81.3 ± 5% | viability at 24 h, 62.5 μg/mL ([1]; 62.5 μg/mL): 62.9 ± 8.9% | viability at 24 h, 250 μg/mL ([1]; 250 μg/mL): 24.8 ± 1.9% | viability at 24 h, 500 μg/mL ([1]; 500 μg/mL): 22.1 ± 1.5% | Testis/Ovary (Sprague Dawley rats [2]; female rats (ovary), 7.5 mg/kg oral 28 d): 0.07 ± 0.02 g | Testis/Ovary (Sprague Dawley rats [2]; female rats (ovary), 37.5 mg/kg oral 28 d): 0.10 ± 0.01 g | Adrenal (Sprague Dawley rats [2]; [8]): 0.05 ± 0.01 g | Brain (Sprague Dawley rats [2]; [8]): 1.9 ± 0.1 g | Heart (Sprague Dawley rats [2]; [8]): 0.9 ± 0.1 g | Kidney (Sprague Dawley rats [2]; [8]): 1.8 ± 0.1 g | Liver (Sprague Dawley rats [2]; [8]): 8.5 ± 0.7 g | Spleen (Sprague Dawley rats [2]; [8]): 0.4 ± 0.1 g | Thymus (Sprague Dawley rats [2]; [8]): 0.4 ± 0.1 g | Adrenal (Sprague Dawley rats [2]; [9]): 0.05 ± 0.01 g | Brain (Sprague Dawley rats [2]; [9]): 2.0 ± 0.1 g | Heart (Sprague Dawley rats [2]; [9]): 1.0 ± 0.1 g | Kidney (Sprague Dawley rats [2]; [9]): 1.7 ± 0.1 g | Liver (Sprague Dawley rats [2]; [9]): 7.8 ± 0.5 g | Spleen (Sprague Dawley rats [2]; [9]): 0.4 ± 0.0 g | Thymus (Sprague Dawley rats [2]; [9]): 0.4 ± 0.1 g | Testis/Ovary (Sprague Dawley rats [2]; male rats (testis), 7.5 mg/kg oral 28 d): 3.1 ± 0.2 g | Testis/Ovary (Sprague Dawley rats [2]; male rats (testis), 37.5 mg/kg oral 28 d): 3.2 ± 0.2 g | Adrenal (Sprague Dawley rats [2]; male rats, 7.5 mg/kg oral 28 d): 0.05 ± 0.01 g | Brain (Sprague Dawley rats [2]; male rats, 7.5 mg/kg oral 28 d): 2.1 ± 0.2 g | Heart (Sprague Dawley rats [2]; male rats, 7.5 mg/kg oral 28 d): 1.3 ± 0.2 g | Kidney (Sprague Dawley rats [2]; male rats, 7.5 mg/kg oral 28 d): 2.8 ± 0.4 g | Liver (Sprague Dawley rats [2]; male rats, 7.5 mg/kg oral 28 d): 12.2 ± 1.9 g | Spleen (Sprague Dawley rats [2]; male rats, 7.5 mg/kg oral 28 d): 0.6 ± 0.1 g | Thymus (Sprague Dawley rats [2]; male rats, 7.5 mg/kg oral 28 d): 0.6 ± 0.1 g | Adrenal (Sprague Dawley rats [2]; [10]): 0.06 ± 0.00 g | Brain (Sprague Dawley rats [2]; [10]): 2.0 ± 0.1 g | Heart (Sprague Dawley rats [2]; [10]): 1.3 ± 0.2 g | Kidney (Sprague Dawley rats [2]; [10]): 2.7 ± 0.2 g | Liver (Sprague Dawley rats [2]; [10]): 11.1 ± 1.2 g | Spleen (Sprague Dawley rats [2]; [10]): 0.6 ± 0.1 g | Thymus (Sprague Dawley rats [2]; [10]): 0.4 ± 0.1 g | growth of lung cancer tumor xenografts [3]: significantly suppressed the growth | Number of Revertant ([4]; TA102, with S9, 0.003125 mg/plate): 352.0 ± 8.5 Colony/Plate | Number of Revertant ([4]; TA102, with S9, 0.00625 mg/plate): 326.7 ± 5.9 Colony/Plate | Number of Revertant ([4]; TA102, with S9, 0.025 mg/plate): 327.3 ± 7.7 Colony/Plate | Number of Revertant ([4]; TA102, with S9, 0.05 mg/plate): 322.0 ± 6.2 Colony/Plate | Number of Revertant ([4]; TA102, without S9, 0.003125 mg/plate): 245.7 ± 10.4 Colony/Plate | Number of Revertant ([4]; TA102, without S9, 0.00625 mg/plate): 246.0 ± 16.4 Colony/Plate | Number of Revertant ([4]; TA102, without S9, 0.025 mg/plate): 278.3 ± 4.5 Colony/Plate | Number of Revertant ([4]; TA102, without S9, 0.05 mg/plate): 270.0 ± 11.2 Colony/Plate | Number of Revertant ([5]; TA1535, with S9, 0.003125 mg/plate): 17.3 ± 0.5 Colony/Plate | Number of Revertant ([5]; TA1535, with S9, 0.00625 mg/plate): 15.7 ± 6.1 Colony/Plate | Number of Revertant ([5]; TA1535, with S9, 0.025 mg/plate): 18.0 ± 1.6 Colony/Plate | Number of Revertant ([5]; TA1535, with S9, 0.05 mg/plate): 14.0 ± 2.4 Colony/Plate | Number of Revertant ([5]; TA1535, without S9, 0.003125 mg/plate): 11.7 ± 2.4 Colony/Plate | Number of Revertant ([5]; TA1535, without S9, 0.00625 mg/plate): 14.7 ± 4.0 Colony/Plate | Number of Revertant ([5]; TA1535, without S9, 0.025 mg/plate): 10.7 ± 1.2 Colony/Plate | Number of Revertant ([5]; TA1535, without S9, 0.05 mg/plate): 12.7 ± 2.9 Colony/Plate | Number of Revertant ([6]; TA98, with S9, 0.003125 mg/plate): 33.7 ± 1.2 Colony/Plate | Number of Revertant ([6]; TA98, with S9, 0.00625 mg/plate): 32.0 ± 1.6 Colony/Plate | Number of Revertant ([6]; TA98, with S9, 0.025 mg/plate): 34.3 ± 3.3 Colony/Plate | Number of Revertant ([6]; TA98, with S9, 0.05 mg/plate): 36.0 ± 4.3 Colony/Plate | Number of Revertant ([6]; TA98, without S9, 0.00625 mg/plate): 246.0 ± 16.4 Colony/Plate | Number of Revertant ([6]; TA98, without S9, 0.025 mg/plate): 278.3 ± 4.5 Colony/Plate | Number of Revertant ([6]; TA98, without S9, 0.05 mg/plate): 270.0 ± 11.2 Colony/Plate | bacterial mutagenicity ([6]; preliminary tests, TA98, 100 μg/plate): no bacterial mutagenicity | BASO (Sprague Dawley rats [7]): 0.0 ± 0.1% | EOSIN (Sprague Dawley rats [7]): 2.1 ± 1.7% | HCT (Sprague Dawley rats [7]): 45.0 ± 3.7% | HGB (Sprague Dawley rats [7]): 14.7 ± 1.2 g/dL | LYMPH (Sprague Dawley rats [7]): 86.1 ± 5.4% | MCH (Sprague Dawley rats [7]): 19.5 ± 0.8 pg | MCHC (Sprague Dawley rats [7]): 32.7 ± 0.3 g/dL | MCV (Sprague Dawley rats [7]): 59.7 ± 1.7 fL | MONO (Sprague Dawley rats [7]): 2.3 ± 1.1% | NEUT (Sprague Dawley rats [7]): 9.6 ± 3.3% | PLT (Sprague Dawley rats [7]): 606.0 ± 430.1 * 10^3/µL | RBC (Sprague Dawley rats [7]): 7.5 ± 0.6 10^6/µL | WBC (Sprague Dawley rats [7]): 8.7 ± 3.4 10^3/µL
